Source: US20160296499A1, “Spiroindoline Antiparasitic Derivatives” (ZOETIS SERVICES LLC, priority 2013, published 2016)
Where two headings read alike, the source gives them in different places.

Assays:
[1] = test system: Dirofilaria immitis microfilariae; assay: Dirofilaria immitis, Microfilariae (DiMF) In Vitro Assay; details: Dirofilaria immitis
Haemonchus contortus L3 = assay: Haemonchus contortus, Larvae Stage 3 (HcL3) In Vitro Assay; details: Haemonchus contortus
[2] = target: T1, bovine vesicular acetylcholine transporter (VAChT) (Bos taurus, UniProt E1BK36); assay: Radioligand Binding Assay; details: Bovine binding Ki, CHO-K1 membranes with recombinant bovine VAChT, [3H]Compound X6 0.3 nM
T1 sequence (E1BK36 1-524): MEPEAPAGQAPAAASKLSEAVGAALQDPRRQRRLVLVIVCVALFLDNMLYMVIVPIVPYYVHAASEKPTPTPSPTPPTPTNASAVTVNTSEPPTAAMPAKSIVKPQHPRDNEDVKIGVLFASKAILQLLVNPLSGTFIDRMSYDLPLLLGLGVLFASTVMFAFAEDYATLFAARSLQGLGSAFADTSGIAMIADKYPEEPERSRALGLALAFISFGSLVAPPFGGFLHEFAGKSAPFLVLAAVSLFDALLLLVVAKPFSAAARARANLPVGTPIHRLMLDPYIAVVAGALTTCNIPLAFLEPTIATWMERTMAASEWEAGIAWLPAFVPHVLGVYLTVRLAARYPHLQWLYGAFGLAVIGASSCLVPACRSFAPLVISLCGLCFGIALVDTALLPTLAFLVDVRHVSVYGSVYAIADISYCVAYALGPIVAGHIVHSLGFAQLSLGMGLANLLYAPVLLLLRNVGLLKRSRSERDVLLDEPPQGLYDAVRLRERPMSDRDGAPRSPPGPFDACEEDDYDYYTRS

[3] = 72 h, read-out: Di MF, MEC, decrease in microfilariae motility by visual assessment, curve starting at 100 μM
[4] = 96 h, read-out: HcL3 MEC, Minimal Effective Concentration whereby worm motility is inhibited by approximately 70%, 37° C., tested 0.001-100 μM
[5] = 96 hours, 37° C., read-out: HcL3 MEC

| SMILES | minimal effective concentration [1, 3] [µM] | minimal effective concentration (Haemonchus contortus L3; [4]) [µM] | Ki [2] [µM] | minimal effective concentration ([1]; 72 hours, read-out: Di MF) [µM] | minimal effective concentration (Haemonchus contortus L3; [5]) [µM] |
| --- | --- | --- | --- | --- | --- |
| O=C(NCc1ccc(Cl)cc1)N1CC2(CCN(C/C=C/c3ccc(Cl)c(Cl)c3)CC2)c2c1ccc1scnc21 [Example 20, (E)-N-(4-chlorobenzyl)-1-(3-(3,4-dichlorophenyl)allyl)spiro[piperidine-4,8′-thiazolo[4,5-e]indole]-6′(7′H)-carboxamide] | 13.5 | 100 | 2.12 | – | – |
| O=C(NCc1cnc(Cl)s1)N1CC2(CCN(C/C=C/c3ccc(Cl)c(Cl)c3)CC2)c2c1ccc1scnc21 [Example 21, (E)-N-((2-chlorothiazol-5-yl)methyl)-1-(3-(3,4-dichlorophenyl)allyl)spiro[piperidine-4,8′-thiazolo[4,5-e]indole]-6′(7′H)-carboxamide] | – | – | 0.105 | 10 | 69.1 |
| O=C(NCc1cncs1)N1CC2(CCN(C/C=C/c3ccc(Cl)c(Cl)c3)CC2)c2c1ccc1scnc21 [Example 22, (E)-1-(3-(3,4-dichlorophenyl)allyl)-N-(thiazol-5-ylmethyl)spiro[piperidine-4,8′-thiazolo[4,5-e]indole]-6′(7′H)-carboxamide] | 10 | 100 | 0.131 | – | – |
| O=C(NCc1nccs1)N1CC2(CCN(C/C=C/c3ccc(Cl)c(Cl)c3)CC2)c2c1ccc1scnc21 [Example 23, (E)-1-(3-(3,4-dichlorophenyl)allyl)-N-(thiazol-2-ylmethyl)spiro[piperidine-4,8′-thiazolo[4,5-e]indole]-6′(7′H)-carboxamide] | 10 | 100 | 0.205 | – | – |
| O=C(NCc1cscn1)N1CC2(CCN(C/C=C/c3ccc(Cl)c(Cl)c3)CC2)c2c1ccc1scnc21 [Example 24, (E)-1-(3-(3,4-dichlorophenyl)allyl)-N-(thiazol-4-ylmethyl)spiro[piperidine-4,8′-thiazolo[4,5-e]indole]-6′(7′H)-carboxamide] | 33 | 100 | 1.1 | – | – |
| O=C(NCC1CCCCC1)N1CC2(CCN(C/C=C/c3ccc(Cl)c(Cl)c3)CC2)c2c1ccc1scnc21 [Example 25, (E)-N-(cyclohexylmethyl)-1-(3-(3,4-dichlorophenyl)allyl)spiro[piperidine-4,8′-thiazolo[4,5-e]indole]-6′(7′H)-carboxamide] | 13.5 | 100 | 7.59 | – | – |
| Cn1cc(CNC(=O)N2CC3(CCN(C/C=C/c4ccc(Cl)c(Cl)c4)CC3)c3c2ccc2scnc32)cn1 [Example 26, (E)-1-(3-(3,4-dichlorophenyl)allyl)-N-((1-methyl-1H-pyrazol-4-yl)methyl)spiro[piperidine-4,8′-thiazolo[4,5-e]indole]-6′(7′H)-carboxamide] | 10 | 10 | 0.0278 | – | – |
| Cn1nccc1CNC(=O)N1CC2(CCN(C/C=C/c3ccc(Cl)c(Cl)c3)CC2)c2c1ccc1scnc21 [Example 27, (E)-1-(3-(3,4-dichlorophenyl)allyl)-N-((1-methyl-1H-pyrazol-5-yl)methyl)spiro[piperidine-4,8′-thiazolo[4,5-e]indole]-6′(7′H)-carboxamide] | – | – | 0.0226 | 10 | 10 |
| Cn1ccc(CNC(=O)N2CC3(CCN(C/C=C/c4ccc(Cl)c(Cl)c4)CC3)c3c2ccc2scnc32)n1 [Example 28, (E)-1-(3-(3,4-dichlorophenyl)allyl)-N-((1-methyl-1H-pyrazol-3-yl)methyl)spiro[piperidine-4,8′-thiazolo[4,5-e]indole]-6′(7′H)-carboxamide] | 10 | 100 | 0.511 | – | – |
| O=C(NCc1cocn1)N1CC2(CCN(C/C=C/c3ccc(Cl)c(Cl)c3)CC2)c2c1ccc1scnc21 [Example 29, (E)-1-(3-(3,4-dichlorophenyl)allyl)-N-(oxazol-4-ylmethyl)spiro[piperidine-4,8′-thiazolo[4,5-e]indole]-6′(7′H)-carboxamide] | 10 | 100 | 0.367 | – | – |
| CC(C)CNC(=O)N1CC2(CCN(C/C=C/c3ccc(Cl)c(Cl)c3)CC2)c2c1ccc1scnc21 [Example 31, (E)-1-(3-(3,4-dichlorophenyl)allyl)-N-isobutylspiro[piperidine-4,8′-thiazolo[4,5-e]indole]-6′(7′H)-carboxamide] | 3.3 | 100 | 0.846 | – | – |
| O=C(NCC1CC1)N1CC2(CCN(C/C=C/c3ccc(Cl)c(Cl)c3)CC2)c2c1ccc1scnc21 [Example 32, (E)-N-(cyclopropylmethyl)-1-(3-(3,4-dichlorophenyl)allyl)spiro[piperidine-4,8′-thiazolo[4,5-e]indole]-6′(7′H)-carboxamide] | 3.3 | 100 | 0.136 | – | – |
| O=C(NCC1CCCC1)N1CC2(CCN(C/C=C/c3ccc(Cl)c(Cl)c3)CC2)c2c1ccc1scnc21 [Example 33, (E)-N-(cyclopentylmethyl)-1-(3-(3,4-dichlorophenyl)allyl)spiro[piperidine-4,8′-thiazolo[4,5-e]indole]-6′(7′H)-carboxamide] | 10 | 100 | 1.64 | – | – |
| O=C(NCc1ccnnc1)N1CC2(CCN(C/C=C/c3ccc(Cl)c(Cl)c3)CC2)c2c1ccc1scnc21 [Example 37, (E)-1-(3-(3,4-dichlorophenyl)allyl)-N-(pyridazin-4-ylmethyl)spiro[piperidine-4,8′-thiazolo[4,5-e]indole]-6′(7′H)-carboxamide] | 6.9 | 100 | 1.21 | – | – |
| O=C(NCc1ccnc(Cl)c1)N1CC2(CCN(C/C=C/c3ccc(F)cc3)CC2)c2c1ccc1scnc21 [Example 38, (E)-N-((2-chloropyridin-4-yl)methyl)-1-(3-(4-fluorophenyl)allyl)spiro[piperidine-4,8′-thiazolo[4,5-e]indole]-6′(7′H)-carboxamide] | 3.3 | 10 | 0.0456 | – | – |
| O=C(NCc1ccnc(Cl)c1)N1CC2(CCN(C/C=C/c3ccc(Cl)cc3)CC2)c2c1ccc1scnc21 [Example 39, (E)-1-(3-(4-chlorophenyl)allyl)-N-((2-chloropyridin-4-yl)methyl)spiro[piperidine-4,8′-thiazolo[4,5-e]indole]-6′(7′H)-carboxamide] | 3.3 | 6.9 | 0.09 | – | – |
| O=C(NCc1ccnc(Cl)c1)N1CC2(CCN(C/C=C/c3ccc(Cl)c(Cl)c3)CC2)c2c1ccc1scnc21 [Example 40, (E)-N-((2-chloropyridin-4-yl)methyl)-1-(3-(3,4-dichlorophenyl)allyl)spiro[piperidine-4,8′-thiazolo[4,5-e]indole]-6′(7′H)-carboxamide] | 5.7 | 4.8 | 0.11 | – | – |
| O=C(NCc1ccnc(Cl)c1)N1CC2(CCN(C/C=C/c3ccc(C(F)(F)F)cn3)CC2)c2c1ccc1scnc21 [Example 41, (E)-N-((2-chloropyridin-4-yl)methyl)-1-(3-(5-(trifluoromethyl)pyridin-2-yl)allyl)spiro[piperidine-4,8′-thiazolo[4,5-e]indole]-6′(7′H)-carboxamide] | 33 | > 100 | 0.428 | – | – |
| COc1ccc(/C=C/CN2CCC3(CC2)CN(C(=O)NCc2ccnc(Cl)c2)c2ccc4scnc4c23)cc1 [Example 42, (E)-N-((2-chloropyridin-4-yl)methyl)-1-(3-(4-methoxyphenyl)allyl)spiro[piperidine-4,8′-thiazolo[4,5-e]indole]-6′(7′H)-carboxamide] | 10 | > 100 | 0.055 | – | – |
| Cc1nc2c3c(ccc2s1)N(C(=O)NCc1ccnc(Cl)c1)CC31CCN(C/C=C/c2ccc(Cl)cc2)CC1 [Example 43, (E)-1-(3-(4-chlorophenyl)allyl)-N-((2-chloropyridin-4-yl)methyl)-2′-methylspiro[piperidine-4,8′-thiazolo[4,5-e]indole]-6′(7′H)-carboxamide] | 10 | > 100 | 0.264 | – | – |
| Cc1nc2c3c(ccc2s1)N(C(=O)NCc1ccnc(Cl)c1)CC31CCN(C/C=C/c2ccc(F)cc2)CC1 [Example 44, (E)-N-((2-chloropyridin-4-yl)methyl)-1-(3-(4-fluorophenyl)allyl)-2′-methylspiro[piperidine-4,8′-thiazolo[4,5-e]indole]-6′(7′H)-carboxamide] | – | – | 0.507 | 10 | > 100 |
